# Results reported in EP0639183B1, “NITROGEN OXIDES OF AZA- AND DIAZA-ANTHRACENEDIONE DERIVATIVES, THEIR PREPARATION AND THEIR USE AS ANTITUMOR AGENTS” (BOEHRINGER MANNHEIM ITALIA S.P.A., priority 1991, dated 1992).
# Several values for one entry are separate records, joined by “and”; a condition that tells them apart may be missing. Identical values can stand only once. Like-named read-outs stand apart in the source and are kept apart here.
# Columns and labels:
# murine L 1210 leukemia [1] = conditions: cited from earlier work
# murine L 1210 leukemia [2] = conditions: cited from earlier work; for in vivo T/C: murine L 1210 leukemia
# [3] = system: human colon adenocarcinoma cell line (Lovo); assay: in vitro cytotoxic activity, MTT assay, Lovo cell line; assay type: cell-based; conditions: 144 hours drug-exposure
# Description: (§1) The evaluation of the "in vitro" cytotoxic activity of the compounds of the invention was performed using a human colon adenocarcinoma cell line (Lovo) isolated from a metastatic nodule and a subline with aquired resistance to a number of antitumor agents, among which doxorubicin, VP-16 and vincristine. […] Cancer, (1986), 54, 515). The compounds were tested according to the MTT assay (Mosman, T. "Rapid Colorimetric assay for cellular growth and survival: application to proliferation and cytotoxicity assay", J. Immunol. Methods, (1983), 65, 55-63; Green. L.M., "Rapid Colorimetric assay for cell viability; application to the quantitation of cytotoxic and growth inhibitory lymphokines", J. Immunol. Methods, (1984), 70, 257-268) in comparison with ametantrone and doxorubicin.
# Lovo/DX = assay: in vitro cytotoxic activity, MTT assay, resistant subline Lovo/DX; assay type: cell-based, human; conditions: for resistance index RI (ratio of the IC50 for the resistant cell line to the IC50 for the sensitive cell line): Lovo/DX versus Lovo
# Description: as §1
# MURINE LEUKEMIA L1210 = assay: L 1210 murine leukemia model in vivo (iv/iv 1,4,7); design: species or system CD2Fl mice
# Description: The antitumor activity of representative compounds of this invention was evaluated also in the L 1210 murine leukemia model.
# (§2) L 1210 leukemia cells were intravenously (iv) injected in CD2Fl mice and treatment was initiated approximately 24 hours after tumor transplantation. Dosages of the drugs were administered iv according to preestablished protocols, usually at 3-day intervals. The studies were done over a 60-day period and the date of death for each animal was recorded. The % T/C was determined using the median survival time (MST) for each group according to the formula % T/C = [(MST treated)/(MST control)] x 100. [formula]
# P 388 MURINE LEUKEMIA = assay: P 388 murine leukemia model in vivo (iv/iv 1,4,7); design: species or system CD2Fl mice
# Description: Studies of the biological activity "in vivo" of representative compounds of the invention were performed using the P 388 and L 1210 murine leukemia models.
# as §2, with “P 388 Murine” for “L 1210”, “mice. Treatment” for “mice and treatment”, “transplantation and dosages” for “transplantation. Dosages”, “drug” for “drugs”, “60 day” for “60-day”
# [4] = in animals; cited from earlier work
# [5] = L1210, iv on days 1,4,7, Dose 40 mg/kg/day
# [6] = L1210, iv on days 1,4,7, Dose 60 mg/kg/day
# [7] = P 388, iv on days 1,4,7, Dose 18 mg/kg/day
# [8] = P 388, iv on days 1,4,7, Dose 27 mg/kg/day
# [9] = L1210, iv on days 1,4,7, Dose 2 mg/kg/day
# [10] = L1210, iv on days 1,4,7, Dose 3 mg/kg/day
# [11] = P 388, iv on days 1,4,7, Dose 2 mg/kg/day
# [12] = P 388, iv on days 1,4,7, Dose 3 mg/kg/day
# [13] = P 388, iv on days 1,4,7, Dose 4 mg/kg/day
smiles,measurement,setting,value
CN(C)CCNc1ccc(NCCN(C)C)c2c1C(=O)c1cccnc1C2=O [Compound 5a],in vitro ID50,murine L 1210 leukemia [1],0.16 µg/mL
same,antitumor activity in vivo (in words),murine L 1210 leukemia [2]; as reported in table II,inactive in vivo
same,in vivo T/C,murine L 1210 leukemia [2]; Dose 50 mg/kg,130
CCN(CC)CCNc1ccc(NCCN(CC)CC)c2c1C(=O)c1cccnc1C2=O [Compound 5b],in vitro ID50,murine L 1210 leukemia [1],2.4 µg/mL
same,in vivo T/C,murine L 1210 leukemia [2]; Dose 100 mg/kg,toxic
CN(C)CCCNc1ccc(NCCCN(C)C)c2c1C(=O)c1cccnc1C2=O [Compound 5c],in vitro ID50,murine L 1210 leukemia [1],1.7 µg/mL
CN(C)CCNc1ccc(NCCN(C)C)c2c1C(=O)c1ccccc1C2=O [Compound 6a],in vitro ID50,murine L 1210 leukemia [1],0.08 µg/mL
same,in vivo T/C,murine L 1210 leukemia [2]; Dose 30 mg/kg,150
CCN(CC)CCNc1ccc(NCCN(CC)CC)c2c1C(=O)c1ccccc1C2=O [Compound 6b],in vitro ID50,murine L 1210 leukemia [1],0.30 µg/mL
"CN(C)CCNc1ccc(NCCN(C)C)c2c1C(=O)c1cc[n+]([O-])cc1C2=O [Compound 7a, 6,9-bis[N-(2-dimethylaminoethyl)amino]benzo[g]isoquinoline-5,10-dione-2-oxide]",IC50,[3],0.44 µg/mL
same,IC50,"Lovo/DX; Homo sapiens, Lovo/DX resistant subline",2.68 µg/mL
same,resistance index RI (ratio of the IC50 for the resistant cell line to the IC50 for the sensitive cell line),Lovo/DX,6.1
"NCCNc1ccc(NCCN)c2c1C(=O)c1cc[n+]([O-])cc1C2=O.O=C(O)/C=C\C(=O)O.O=C(O)/C=C\C(=O)O [Compound 7b, 6,9-bis[N-(2-aminoethyl)amino]benzo[g]isoquinoline-5,10-dione-2-oxide dimaleate]",LTS,MURINE LEUKEMIA L1210; [5],0/8
same,T/C% (range),MURINE LEUKEMIA L1210; [5],266%
same,TOX (Number of toxic deaths/total number of mice),MURINE LEUKEMIA L1210; [5],0/8
same,LTS,MURINE LEUKEMIA L1210; [6],0/10
same,T/C% (range),MURINE LEUKEMIA L1210; [6],333%
same,TOX (Number of toxic deaths/total number of mice),MURINE LEUKEMIA L1210; [6],0/10
same,T/C% (range),P 388 MURINE LEUKEMIA; [7],122%
same,TOX (Number of toxic deaths/total number of mice),P 388 MURINE LEUKEMIA; [7],0/8
same,T/C% (range),P 388 MURINE LEUKEMIA; [8],133%
same,TOX (Number of toxic deaths/total number of mice),P 388 MURINE LEUKEMIA; [8],0/8
same,TOX (Number of toxic deaths/total number of mice),"P 388 MURINE LEUKEMIA; P 388, iv on days 1,4,7, Dose 40 mg/kg/day",1/24
same,T/C% (range),"P 388 MURINE LEUKEMIA; P 388, iv on days 1,4,7, Dose 40 mg/kg/day, dimaleate, 40 mg/kg/day",144% and 166% and 194%
same,TOX (Number of toxic deaths/total number of mice),"P 388 MURINE LEUKEMIA; P 388, iv on days 1,4,7, Dose 60 mg/kg/day",0/17
same,T/C% (range),"P 388 MURINE LEUKEMIA; P 388, iv on days 1,4,7, Dose 60 mg/kg/day, dimaleate, 60 mg/kg/day",200% and 225%
same,TOX (Number of toxic deaths/total number of mice),"P 388 MURINE LEUKEMIA; P 388, iv on days 1,4,7, Dose 80 mg/kg/day",4/17
same,T/C% (range),"P 388 MURINE LEUKEMIA; P 388, iv on days 1,4,7, Dose 80 mg/kg/day, dimaleate, 80 mg/kg/day",211% and 262%
"O=C1c2c(O)ccc(O)c2C(=O)c2c(NCCNCCO)ccc(NCCNCCO)c21 [MITOX, 5,8-dihydroxy-1,4-bis([2-(2-hydroxyethylamino)ethyl]amino]anthracene-9,10-dione]",LTS,MURINE LEUKEMIA L1210; [9],0/8
same,T/C% (range),MURINE LEUKEMIA L1210; [9],208%
same,TOX (Number of toxic deaths/total number of mice),MURINE LEUKEMIA L1210; [9],0/8
same,LTS,MURINE LEUKEMIA L1210; [10],0/8
same,T/C% (range),MURINE LEUKEMIA L1210; [10],216%
same,TOX (Number of toxic deaths/total number of mice),MURINE LEUKEMIA L1210; [10],0/8
same,T/C% (range),P 388 MURINE LEUKEMIA; [11],171(154-212) %
same,TOX (Number of toxic deaths/total number of mice),P 388 MURINE LEUKEMIA; [11],0/50
same,T/C% (range),P 388 MURINE LEUKEMIA; [12],185(167-217) %
same,TOX (Number of toxic deaths/total number of mice),P 388 MURINE LEUKEMIA; [12],12/84
same,T/C% (range),P 388 MURINE LEUKEMIA; [13],118(89-133) %
same,TOX (Number of toxic deaths/total number of mice),P 388 MURINE LEUKEMIA; [13],20/24
"O=C1c2ccccc2C(=O)c2c(NCCNCCO)ccc(NCCNCCO)c21 [ametantrone, 1,4-bis{[2-(2-hydroxyethylamino)ethyl]amino]anthracene-9,10-dione]",less potent and cardiotoxic than mitoxantrone,[4],about 10 fold
same,IC50,[3],0.33 ± 0.1 µg/mL
same,resistance index RI (ratio of the IC50 for the resistant cell line to the IC50 for the sensitive cell line),Lovo/DX,101.2
COc1cccc2c1C(=O)c1c(O)c3c(c(O)c1C2=O)C[C@@](O)(C(=O)CO)C[C@@H]3O[C@H]1C[C@H](N)[C@H](O)[C@H](C)O1 [doxorubicin],resistance index RI (ratio of the IC50 for the resistant cell line to the IC50 for the sensitive cell line),Lovo/DX,142.7
